{"source": "patent US20230248672A1", "about": "“COMPOSITIONS COMPRISING GARDOS CHANNEL ANTAGONISTS AND THEIR USES” (ADIMABIO LLC, priority 2020, published 2023)", "origin": "cited, not measured here", "key": {"Gardos channel": {"target": "Gardos channel (Homo sapiens, UniProt O15554)"}, "[1]": {"assay": "not given", "remark": "listed apart in the source"}, "[2]": {"assay": "not given", "remark": "listed apart in the source"}, "[3]": {"details": "rats, administered orally"}, "[4]": {"system": "sickle cell disease patients"}}}
{"smiles": "Clc1ccccc1C(c1ccccc1)(c1ccccc1)n1ccnc1", "note": "[Clotrimazole]", "values": [{"measurement": "inhibition of the Gardos channel", "setting": "Gardos channel; normal and sickle erythrocytes", "result": "specific, potent inhibitor"}]}
{"smiles": "NC(=O)C(c1ccccc1)(c1ccc(F)cc1)c1ccc(F)cc1", "note": "[senicapoc, 2,2-bis(4-fluorophenyl)-2-phenylacetamide]", "values": [{"measurement": "log P", "result": 3.59}, {"measurement": "aqueous solubility", "setting": "[1]", "result": 975, "unit": "µg/mL"}, {"measurement": "oral bioavailability", "setting": "[2]", "result": 51, "unit": "%"}, {"measurement": "time at which maximum concentration is attained", "setting": "[3]", "result": 4, "unit": "h"}, {"measurement": "rate of sickle cell painful crises", "setting": "[4]; compared to placebo", "result": "no significant improvement"}, {"measurement": "tolerability", "setting": "[4]; dose of 10 mg, sickle cell disease patients", "result": "well tolerated"}, {"measurement": "hemoglobin", "setting": "[4]; sickle cell disease patients", "result": "dose-dependent increase"}, {"measurement": "markers of hemolysis", "setting": "[4]; sickle cell disease patients", "result": "decrease"}, {"measurement": "block of potassium efflux through the Gardos channel", "setting": "Gardos channel; red blood cells", "result": "selectively blocks"}]}
